Measured values taken from patent publication EP0218400A1, “Assay methods for chemotherapeutic agents” (DAMON BIOTECH, INC., priority 1985, dated 1987).

Assays:
[1] = system: Human T cell lymphoma (MOLT-4) cells; test: In vitro drug pretreatment of encapsulated cells, then growth in the peritoneal cavity of mice; assay type: in vivo; conditions: for No. of tumor cells per capsule: then 7 days i.p. in C57BL/6 mice
Procedure: The encapsulated tumors are preferably incubated at 37° C in medium for 1 to 2 hours. A 25 percent (v/v) suspension can then be prepared (preferably without bovine serum). The suspension can be inoculated in the peritoneal cavity of the host animal (i.e., with a 16 gauge needle).
(§1) In the experiments that follow, the drugs and other agents tested were administered to the host animal by injection at the various times called for in the protocol being tested. At various periods after treatment, the mice were killed by cervical dislocation. The peritoneal cavity of each mouse was washed with PBS or medium and floating microcapsules were aspirated using a large bore plastic Pasteur pipette. Microcapsules were transferred to 15 ml tubes and washed 3 to 4 times with PBS to remove host peritoneal cells. The washed microcapsules were aspirated into 1 ml serological pipettes, allowed to sediment, and the volume of packed microcapsules was determined. Microcapsules were then transferred to a glas dounce homogenizer (7 ml volume) and disrupted with 3 strokes of an A-tolerance plumger. Cells suspensions were filtered through nylon mesh to remove the disrupted membranes. The suspensions containing tumor cells were centrifuged and the pellet was resuspended in 0.25 to 0.5 ml of complete medium. After mixing equal volumes of cell suspension and trypan blue, viable cell counts were determined using a hemocytometer.
(§2) The number of tumor cells per 1 ml of packed microcapsules was determined as follows: a = ? where b = total number of tumor cells in the suspension, and c = total volume of microcapsules used for the preparation of this suspension.
(§3) By comparing the number of tumor cells in 1 ml of microcapsules derived from non-treated and drug-treated mice, the percent inhibition of tumor cell growth was calculated: [formula] where ac = number of tumor cells from the non-treated control microcapsules, and ae = number of tumor cells from the drug treated microcapsules.
Human T cell lymphoma (MOLT-4) cells were encapsulated according to the procedures described above and incubated in vitro in RPMI I640 medium supplemented with 10 percent fetal calf serum, glutamine and antibiotics for one hour of 37°C. During incubation they were exposed to various concentrations of 1,3-B (2-chloroethyl)-1-nitrosourea (BCNU), 5-fluorouracil (5-FU) and adriamycin. The microcapsules were then washed and implanted into the peritoneal cavity (i.p.) of C57BL/6 mice (Animal Production Area NCI-Frederick Cancer Research Facility) using #18-14 needles. After seven days the mice were sacrificed and their peritoneal cavities were washed with PBS and aspirated to collect the microcapsules in a Pasteur pipette. The microcapsules were washed several times from the host peritoneal cells. The microcapsules from the individual mice were counted by transferring them into wells of a 96 well microplate. Using an inverted microscope, the numbers of microcapsules in each well were counted. Each well was washed out and microcapsules were transferred into the glass homogenizer.
Microcapsules were then disrupted, and the suspension was filtered, centrifugated and reconstituted with PBS. The concentration and total number of cells were counted using a hemocytometer.

[2] = system: human colon adenocarcinoma (HT-29) cells; test: In vivo growth of encapsulated HT-29 cells in C57BL/6 mice; conditions: for inhibition at 20 mg/kg: Mus musculus; for No. of cells per capsule / Total No. of tumor cells: 4 days
Procedure: as §1, §2, §3
A second human cancer cell line was also used to further analyze in vivo effects of different drugs on the growth of tumors. Encapsulated human colon adenocarcinoma (HT-29) cells were again transplanted into C57BL/6 mice and various drugs were administered after 3 days either by intravenous or by intraperitoneal injection. Animals were sacrificed after 4 days and number of cells per capsule were counted to calculate inhibition rates for the various treatment procedures. […] In fact, 5-FU is a preferred chemotherapeutic agent for patients with gastrointestinal malignancies.

Original P388 cells = test: In vivo growth of encapsulated original P388 lymphoma cells in nude mice
Procedure: as §1, §2, §3
(§4) Since drug-resistance is one of the most important causes of failure in chemotherapy, it is crucial that a predictive assay be able to distinguish between effective and non-effective drugs for particular tumors. […] One day later the mice received by i.v. administration Adriamycin (6 mg/kg), Vinblastin (1 mg/kg) or Cyclophosphamide (100 mg/kg). Five days after administration some of the mice were sacrificed, the microcapsules were recovered and the numbers of tumor cells inside the capsules were determined. The remaining mice received a second administration and the microcapsules were recovered from the remaining mice 3 days afterwards. The results are shown in Table 7 and correlate well with the known characteristics of P388 cell line and its variant.

P388 Resistant Cells = test: In vivo growth of encapsulated adriamycin-resistant P388 lymphoma cells in nude mice
Procedure: as §1, §2, §3, §4

[3] = system: MOLT-4 human lymphoma cells; test: In vivo sensitivity of encapsulated MOLT-4 cells in nude mice, NCI schedule; conditions: Adriamycin 6 mg/kg, 15 days after transplantation
Procedure: as §1, §2, §3
In the next experiment various drugs were administered in vivo according to schedules and doses typically used for screening antitumor effects of the drugs at the National Cancer Institute, Developmental Therapeutics program.
MOLT-4 human lymphoma cells were encapsulated and transplanted into peritoneum of nude mice. Doses of various drugs were applied i.v. at 1, 5 and 9 days after tumor cell transplantation.

human Melanoma LOX cells = test: In vivo susceptibility of encapsulated LOX melanoma cells in nude mice
Procedure: as §1, §2, §3
In this series of experiments, cells of a fourth human cancer type, Melanoma LOX cells, were used. LOX cells have recently been proposed as the model for experimental treatment at the NCI Development Therapeutics Program. Following i.p. inoculation of the suspension of LOX Melanoma cells into nude mice, various drugs were administered i.v. and survival of the treated mice was determined (Schoemaker et al., Proceeding American Association for Cancer Research, 26, 1302, 1985) (mice transplanted with the non-encapsulated tumor cells were considered tumor-free if they survived during 3 months of observation). In parallel experiments encapsulated LOX Melanoma cells were transferred into nude mice and drugs were inoculated i.v. 1, 5 and 9 days at the dose and schedule utilized by the Dr. Shoemaker's procedure.

LOX Melanoma cells = conditions: i.v.; Adriamycin 6, BCNU 20, CY 100, 5-Fu 60 mg/kg; survival during 3 months of observation; nude mice; cited from earlier work
[4] = i.p. 3 days after transplantation, 5-Fu 150 mg/kg, CY 250 mg/kg, Adriamycin 20 mg/kg
[5] = i.v. 20 mg/kg 3 days after transplantation
[6] = 5 + 3 days after treatment (3 days after second administration), Adriamycin 6, Vinblastin 1, Cyclophosphamide 100 mg/kg i.v.
[7] = 5 days after treatment, i.v. one day after inoculation, Adriamycin 6, Vinblastin 1, Cyclophosphamide 100 mg/kg

SMILES: COc1cccc2c1C(=O)c1c(O)c3c(c(O)c1C2=O)C[C@@](O)(C(=O)CO)C[C@@H]3O[C@H]1C[C@H](N)[C@H](O)[C@H](C)O1 [Adriamycin]
- No. of tumor cells per capsule ([1]; 2.5 µg/ml in vitro for one hour): 2 x 10^3
- No. of tumor cells per capsule ([1]; 10 µg/ml in vitro for one hour): 10
- inhibition at 2.5 µg/mL ([1]; Mus musculus, MOLT-4, ip): 60%
- inhibition at 10 µg/mL ([1]; Mus musculus, MOLT-4, ip): 100%
- inhibition at 20 mg/kg ([2]; HT-29, ip): 45%
- inhibition at 20 mg/kg ([2]; HT-29, iv): 50%
- No. of cells per capsule [2, 4]: 1.1 x 10^4
- Total No. of tumor cells [2, 4]: 5.8 x 10^5
- No. of cells per capsule [2, 5]: 1 x 10^4
- Total No. of tumor cells [2, 5]: 1.2 x 10^6
- % Inhibition (Original P388 cells; [6]): 92%
- No. cells/ml (Original P388 cells; [6]): 4 x 10^6
- % Inhibition (Original P388 cells; [7]): 64%
- No. cells/ml (Original P388 cells; [7]): 8 x 10^6
- No. cells/ml (P388 Resistant Cells; [6]): 32 x 10^6
- No. cells/ml (P388 Resistant Cells; [7]): 18 x 10^6
- inhibiting the growth of the drug-resistant variant (in words) (P388 Resistant Cells; Adriamycin 6 mg/kg, Vinblastin 1 mg/kg i.v.): Neither Adriamycin nor Vinblastin in the doses administered was effective
- inhibition of tumor cell proliferation (in words) ([3]; 5-FU 60 mg/kg i.v. days 1, 5, 9): dramatic inhibition of tumor cell proliferation
- inhibition at 6 mg/kg ([3]; Mus musculus, MOLT-4, iv, 360 h, i.v. days 1, 5, 9, Cyclophosphamide 100 mg/kg, 5-Fu 60 mg/kg, nude mice): 95%
- No of viable tumor cells per 1 ml of capsules ([3]; i.v. days 1, 5, 9, Cyclophosphamide 100 mg/kg, 5-Fu 60 mg/kg, nude mice): 2.7 x 10^6
- sensitivity of encapsulated LOX cells to the treatment (in words) (human Melanoma LOX cells; i.v. days 1, 5, 9): most sensitive
- No. of viable tumor cells per 1 ml. of capsules (human Melanoma LOX cells; i.v. days 1, 5, 9, Adriamycin 6, BCNU 20, CY 100, 5-Fu 60 mg/kg): 6 x 10^5
- % survived mice transplanted with nonencapsulated tumor cells (LOX Melanoma cells): 33%
